Test results as given in patent publication US12478617B2, “Lipidated peptide inhibitors of interleukin-23 receptor” (JANSSEN BIOTECH, INC., priority 2021, dated 2025).
Starred links: 1 amine or outer side, 2 acyl side, 3 side chain; linkers in the order of their positions; H or OH if unused. Positions of bridges follow the written chain, without caps; N, C: chain ends. Non-standard residues stand in square brackets, D forms with d. Residues, ends and D or L forms follow the SMILES beside them. Groups on a side chain read outwards from the residue. *: point of attachment. CH3O(CH2CH2O)11CH2CH2CO = COCCOCCOCCOCCOCCOCCOCCOCCOCCOCCOCCOCCC(=O)*; PEG12 = NCCOCCOCCOCCOCCOCCOCCOCCOCCOCCOCCOCCOCCC(=O)O; Trp(7-Me) = Cc1cccc2c(C[C@H](N)C(=O)O)c[nH]c12; C18 diacid = O=C(O)CCCCCCCCCCCCCCCCC(=O)*; γGlu = O=C(O)[C@H](CCC(=O)[*:2])N[*:1]; 2Nal = N[C@@H](Cc1ccc2ccccc2c1)C(=O)O; Palmitoyl = CCCCCCCCCCCCCCCC(=O)*; 3Pal = N[C@@H](Cc1cccnc1)C(=O)O; αMeL = CC(C)C[C@](C)(N)C(=O)O; PEG4 = NCCOCCOCCOCCOCCC(=O)O; Pen = CC(C)(S)[C@H](N)C(=O)O; αMeK = C[C@](N)(CCCCN)C(=O)O; X3 = COCCOCCOCCOCCC(=O)*; Thp = NC1(C(=O)O)CCOCC1; Sar = CNCC(=O)O

Each molecule was assayed against IL-23R-expressing DB cells (Homo sapiens, UniProt Q5VWK5) (assay: DB Cells IL23R pSTAT3 Cell Assay). Details: pSTAT3 (HTRF) in IL-23R-expressing DB cells, 0.5 nM IL-23, 30 minutes; Table 6 'IL-23 Cell Data'.
Sequence of IL-23R-expressing DB cells (Q5VWK5 24-629 limits assumed): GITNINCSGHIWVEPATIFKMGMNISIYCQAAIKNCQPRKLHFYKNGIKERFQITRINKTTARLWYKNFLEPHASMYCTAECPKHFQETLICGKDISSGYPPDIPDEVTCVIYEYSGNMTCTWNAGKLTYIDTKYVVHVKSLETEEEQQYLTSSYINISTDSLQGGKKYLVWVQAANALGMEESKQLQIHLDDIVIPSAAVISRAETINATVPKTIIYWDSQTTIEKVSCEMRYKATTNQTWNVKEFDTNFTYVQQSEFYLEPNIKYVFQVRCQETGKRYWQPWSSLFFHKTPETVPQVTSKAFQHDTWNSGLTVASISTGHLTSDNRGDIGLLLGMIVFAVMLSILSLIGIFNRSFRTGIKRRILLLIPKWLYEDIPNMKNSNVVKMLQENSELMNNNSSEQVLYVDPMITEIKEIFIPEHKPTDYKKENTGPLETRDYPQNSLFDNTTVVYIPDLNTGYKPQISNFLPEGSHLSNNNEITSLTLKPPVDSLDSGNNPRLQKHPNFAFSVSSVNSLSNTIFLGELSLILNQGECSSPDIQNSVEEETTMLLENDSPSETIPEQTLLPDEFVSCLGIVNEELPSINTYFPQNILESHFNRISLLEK
Assay type: cell-based
Method: IL-23 is believed to play a central role in supporting and maintaining Th17 differentiation in vivo. This process is thought to be mediated primarily through the Signal Transducer and Activator of Transcription 3 (STAT3), with phosphorylation of STAT3 (to yield pSTAT3) leading to upregulation of RORC and pro-inflammatory IL-17. […] DB cells (ATCC #CRL-2289), cultured in RPMI-1640 medium (Thermo Scientific #11875093) supplemented with 10% FBS, were added at 5 X 10E5 cells/well and incubated for 30 minutes at 37° C. in a 5% CO2 humidified incubator. Changes in phospho-STAT3 levels in the cell lysates were detected using the Cisbio HTRF pSTAT3 (Tyr705) Cellular Assay Kit (Cisbio #62AT3PEH), according to manufacturer's Two Plate Assay protocol. Where not shown or it is marked as “0”, data was not yet determined.

SMILES | IC50 [nM]
COCCOCCOCCOCCOCCOCCOCCOCCOCCOCCOCCOCCC(=O)N[C@@H]1C(=O)N[C@@H](CC(N)=O)C(=O)N[C@@H]([C@@H](C)O)C(=O)N[C@@H](Cc2c[nH]c3c(C)cccc23)C(=O)N[C@@H](CCCCNC(C)=O)C(=O)N[C@H](C(=O)N[C@@H](Cc2ccccc2)C(=O)N[C@@H](Cc2ccc3ccccc3c2)C(=O)N[C@@](C)(CC(C)C)C(=O)N[C@@H](CC(C)C)C(=O)N[C@@H](CC(N)=O)C(=O)N[C@@H](Cc2cccnc2)C(=O)N(C)CC(N)=O)C(C)(C)SSC1(C)C [Example 207, [PEG12_OMe]-[Pen]-N-T-[Trp(7-Me)]-[Lys(Ac)]-[Pen]-F-[2Nal]-[aMeLeu]-L-N-[3Pal]-[Sarc]-NH2] ({CH3O(CH2CH2O)11CH2CH2CO}-[Pen]NT[Trp(7-Me)]K(Ac)[Pen]F[2Nal][αMeL]LN[3Pal][Sar]-NH2; disulfide 1-6) | 0.631
CCCCCCCCCCCCCCCC(=O)N[C@@H](CCC(=O)NCCOCCOCCOCCOCCOCCOCCOCCOCCOCCOCCOCCOCCC(=O)NCCCC[C@](C)(NC(=O)[C@H](Cc1ccc2ccccc2c1)NC(=O)[C@H](Cc1ccc(OC)cc1)NC(=O)[C@H]1NC(=O)[C@H](CCCCNC(C)=O)NC(=O)[C@H](Cc2c[nH]c3c(C)cccc23)NC(=O)[C@H]([C@@H](C)O)NC(=O)[C@H](C)NC(=O)[C@@H](NC(C)=O)C(C)(C)SSC1(C)C)C(=O)N[C@@H](CCCCNC(C)=O)C(=O)N[C@@H](CC(N)=O)C(=O)N[C@@H](Cc1cccnc1)C(=O)N(C)CC(N)=O)C(=O)O [Example 226, Ac-[Pen]-A-T-[Trp(7-Me)]-[Lys(Ac)]-[Pen]-[Phe(4-OMe)]-[2Nal]-[aMeLys(PEG12_IsoGlu_Palm)]-[Lys(Ac)]-N-[3Pal]-[Sarc]-NH2] (Ac-[Pen]AT[Trp(7-Me)]K(Ac)[Pen]Y(Me)[2Nal][αMeK]([PEG12-γGlu-Palmitoyl])K(Ac)N[3Pal][Sar]-NH2; disulfide 1-6) | 0.633
COCCOCCOCCOCCC(=O)N[C@@H]1C(=O)N[C@@H](CC(N)=O)C(=O)N[C@@H]([C@@H](C)O)C(=O)N[C@@H](Cc2c[nH]c3c(C)cccc23)C(=O)N[C@@H](CCCCNC(C)=O)C(=O)N[C@H](C(=O)N[C@@H](Cc2ccccc2)C(=O)N[C@@H](Cc2ccc3ccccc3c2)C(=O)N[C@@](C)(CC(C)C)C(=O)N[C@@H](CC(C)C)C(=O)N[C@@H](CC(N)=O)C(=O)N[C@@H](Cc2cccnc2)C(=O)N(C)CC(N)=O)C(C)(C)SSC1(C)C [Example 211, [PEG4_OMe]-[Pen]-N-T-[Trp(7-Me)]-[Lys(Ac)]-[Pen]-F-[2Nal]-[aMeLeu]-L-N-[3Pal]-[Sarc]-NH2] (X3-[Pen]NT[Trp(7-Me)]K(Ac)[Pen]F[2Nal][αMeL]LN[3Pal][Sar]-NH2; disulfide 1-6) | 0.062
COc1ccc(C[C@H](NC(=O)[C@H]2NC(=O)[C@H](CCCCNC(=O)CC[C@H](NC(=O)CCCCCCCCCCCCCCCCC(=O)O)C(=O)O)NC(=O)[C@H](Cc3c[nH]c4c(C)cccc34)NC(=O)[C@H]([C@@H](C)O)NC(=O)[C@H](CC(C)C)NC(=O)[C@@H](NC(C)=O)C(C)(C)SSC2(C)C)C(=O)N[C@@H](Cc2ccc3ccccc3c2)C(=O)NC2(C(=O)N[C@@H](CCCCNC(C)=O)C(=O)N[C@@H](CC(C)C)C(=O)N[C@@H](Cc3cccnc3)C(=O)N(C)CC(N)=O)CCOCC2)cc1 [Example 271, Ac-[Pen]-L-T-[Trp(7-Me)]-[Lys(IsoGlu_C18_Diacid)]-[Pen]-[Phe(4-OMe)]-[2Nal]-[THP]-[Lys(Ac)]-L-[3Pal]-[Sarc]-NH2] (Ac-[Pen]LT[Trp(7-Me)]K([γGlu-C18 diacid])[Pen]Y(Me)[2Nal][Thp]K(Ac)L[3Pal][Sar]-NH2; disulfide 1-6) | > 10
COCCOCCOCCOCCC(=O)N[C@@H]1C(=O)N[C@@H](CC(C)C)C(=O)N[C@@H]([C@@H](C)O)C(=O)N[C@@H](Cc2c[nH]c3c(C)cccc23)C(=O)N[C@@H](CCCCNC(C)=O)C(=O)N[C@H](C(=O)N[C@@H](Cc2ccccc2)C(=O)N[C@@H](Cc2ccc3ccccc3c2)C(=O)N[C@@](C)(CC(C)C)C(=O)N[C@@H](CC(C)C)C(=O)N[C@@H](CC(N)=O)C(=O)N[C@@H](Cc2cccnc2)C(=O)N(C)CC(N)=O)C(C)(C)SSC1(C)C [Example 213, [PEG4_OMe]-[Pen]-L-T-[Trp(7-Me)]-[Lys(Ac)]-[Pen]-F-[2Nal]-[aMeLeu]-L-N-[3Pal]-[Sarc]-NH2] (X3-[Pen]LT[Trp(7-Me)]K(Ac)[Pen]F[2Nal][αMeL]LN[3Pal][Sar]-NH2; disulfide 1-6) | 0.13
CCCCCCCCCCCCCCCC(=O)N[C@@H](CCC(=O)NCCOCCOCCOCCOCCOCCOCCOCCOCCOCCOCCOCCOCCC(=O)NCCCC[C@](C)(NC(=O)[C@H](Cc1ccc2ccccc2c1)NC(=O)[C@H](Cc1ccc(OC)cc1)NC(=O)[C@H]1NC(=O)[C@H](CCCCNC(C)=O)NC(=O)[C@H](Cc2c[nH]c3c(C)cccc23)NC(=O)[C@H]([C@@H](C)O)NC(=O)[C@H](CC(N)=O)NC(=O)[C@@H](NC(C)=O)C(C)(C)SSC1(C)C)C(=O)N[C@@H](C)C(=O)N[C@@H](C)C(=O)N[C@@H](Cc1cccnc1)C(=O)N(C)CC(N)=O)C(=O)O [Example 225, Ac-[Pen]-N-T-[Trp(7-Me)]-[Lys(Ac)]-[Pen]-[Phe(4-OMe)]-[2Nal]-[aMeLys(PEG12_IsoGlu_Palm)]-A-A-[3Pal]-[Sarc]-NH2] | 0.811
COCCOCCOCCOCCOCCOCCOCCOCCOCCOCCOCCOCCC(=O)N[C@@H]1C(=O)N[C@@H](CC(C)C)C(=O)N[C@@H]([C@@H](C)O)C(=O)N[C@@H](Cc2c[nH]c3c(C)cccc23)C(=O)N[C@@H](CCCCNC(C)=O)C(=O)N[C@H](C(=O)N[C@@H](Cc2ccccc2)C(=O)N[C@@H](Cc2ccc3ccccc3c2)C(=O)N[C@@](C)(CC(C)C)C(=O)N[C@@H](CC(C)C)C(=O)N[C@@H](CC(N)=O)C(=O)N[C@@H](Cc2cccnc2)C(=O)N(C)CC(N)=O)C(C)(C)SSC1(C)C [Example 209, [PEG12_OMe]-[Pen]-L-T-[Trp(7-Me)]-[Lys(Ac)]-[Pen]-F-[2Nal]-[aMeLeu]-L-N-[3Pal]-[Sarc]-NH2] ({CH3O(CH2CH2O)11CH2CH2CO}-[Pen]LT[Trp(7-Me)]K(Ac)[Pen]F[2Nal][αMeL]LN[3Pal][Sar]-NH2; disulfide 1-6) | 0.07
CCCCCCCCCCCCCCCC(=O)N[C@@H](CCC(=O)NCCOCCOCCOCCOCCOCCOCCOCCOCCOCCOCCOCCOCCC(=O)NCCCC[C@H](NC(=O)C1(NC(=O)[C@H](Cc2ccc3ccccc3c2)NC(=O)[C@H](Cc2ccc(OC)cc2)NC(=O)[C@H]2NC(=O)[C@H](CCCCNC(C)=O)NC(=O)[C@H](Cc3c[nH]c4c(C)cccc34)NC(=O)[C@H]([C@@H](C)O)NC(=O)[C@H](CC(C)C)NC(=O)[C@@H](NC(C)=O)C(C)(C)SSC2(C)C)CCOCC1)C(=O)N[C@@H](CC(C)C)C(=O)N[C@@H](Cc1cccnc1)C(=O)N(C)CC(N)=O)C(=O)O [Example 243, Ac-[Pen]-L-T-[Trp(7-Me)]-[Lys(Ac)]-[Pen]-[Phe(4-OMe)]-[2Nal]-[THP]-[Lys(PEG12_IsoGlu_Palm)]-L-[3Pal]-[Sarc]-NH2] (Ac-[Pen]LT[Trp(7-Me)]K(Ac)[Pen]Y(Me)[2Nal][Thp]K([PEG12-γGlu-Palmitoyl])L[3Pal][Sar]-NH2; disulfide 1-6) | 4.3
COc1ccc(C[C@H](NC(=O)[C@H]2NC(=O)[C@H](CCCCNC(=O)CCOCCOCCOCCOCCOCCOCCOCCOCCOCCOCCOCCOCCNC(=O)CC[C@H](NC(=O)CCCCCCCCCCCCCCCCC(=O)O)C(=O)O)NC(=O)[C@H](Cc3c[nH]c4c(C)cccc34)NC(=O)[C@H]([C@@H](C)O)NC(=O)[C@H](CC(C)C)NC(=O)[C@@H](NC(C)=O)C(C)(C)SSC2(C)C)C(=O)N[C@@H](Cc2ccc3ccccc3c2)C(=O)NC2(C(=O)N[C@@H](CC(C)C)C(=O)N[C@@H](CC(C)C)C(=O)N[C@@H](Cc3cccnc3)C(=O)N(C)CC(N)=O)CCOCC2)cc1 [Example 268, Ac-[Pen]-L-T-[Trp(7-Me)]-[Lys(PEG12_IsoGlu_C18_Diacid)]-[Pen]-[Phe(4-OMe)]-[2Nal]-[THP]-L-L-[3Pal]-[Sarc]-NH2] (Ac-[Pen]LT[Trp(7-Me)]K([PEG12-γGlu-C18 diacid])[Pen]Y(Me)[2Nal][Thp]LL[3Pal][Sar]-NH2; disulfide 1-6) | > 10
COc1ccc(C[C@H](NC(=O)[C@H]2NC(=O)[C@H](CCCCNC(=O)CCOCCOCCOCCOCCNC(=O)CCCCCCCCCCCCCCCCC(=O)O)NC(=O)[C@H](Cc3c[nH]c4c(C)cccc34)NC(=O)[C@H]([C@@H](C)O)NC(=O)[C@H](CC(C)C)NC(=O)[C@@H](NC(C)=O)C(C)(C)SSC2(C)C)C(=O)N[C@@H](Cc2ccc3ccccc3c2)C(=O)NC2(C(=O)N[C@@H](CC(C)C)C(=O)N[C@@H](CC(C)C)C(=O)N[C@@H](Cc3cccnc3)C(=O)N(C)CC(N)=O)CCOCC2)cc1 [Example 262, Ac-[Pen]-L-T-[Trp(7-Me)]-[Lys(PEG4_C18_Diacid)]-[Pen]-[Phe(4-OMe)]-[2Nal]-[THP]-L-L-[3Pal]-[Sarc]-NH2] (Ac-[Pen]LT[Trp(7-Me)]K([PEG4-C18 diacid])[Pen]Y(Me)[2Nal][Thp]LL[3Pal][Sar]-NH2; disulfide 1-6) | > 10
